Assay results as given in patent US9440964B2, “Pesticidal compositions and processes related thereto” (Dow AgroSciences LLC, priority 2011, dated 2016).

Legend:
BAW (Spodoptera exigua) = assay: Bioassay on Beet Armyworm (BAW), 128-well diet tray; format: in vivo; conditions: Spodoptera exigua, 168 h; percent mortality, second instar larvae, 50 μg/cm^2 on diet, five to seven days; read-out: Rating BAW
Description: (§1) Certain molecules disclosed in this document were tested against BAW and CEW using procedures described in the following examples. In the reporting of the results, the “BAW & CEW Rating Table” was used (See Table Section).
Bioassays on BAW (Spodoptera exigua)
(§2) Trays were covered with a clear self-adhesive cover and held at 25° C., 14:10 light-dark for five to seven days. Percent mortality was recorded for the larvae in each well; activity in the eight wells was then averaged. The results are indicated in the table entitled “Table ABC: Biological Results” (See Table Section).

CEW (Helicoverpa zea) = assay: Bioassay on Corn Earworm (CEW), 128-well diet tray; format: in vivo; conditions: Helicoverpa zea, 168 h, percent mortality, second instar larvae, five to seven days; for pest or weed control at 50 µg/cm2: 50 μg/cm^2 on diet, read-out: Rating CEW; for pest or weed control at 0.5 µg/cm2: 0.5 μg/cm^2 on diet, read-out: Rating CEW (*Tested at 0.5 μg/cm^2)
Description: as §1
Bioassays on CEW (Helicoverpa zea)
as §2

Structure (SMILES) | pest or weed control at 50 µg/cm2 (BAW (Spodoptera exigua)) [%] | pest or weed control at 50 µg/cm2 (CEW (Helicoverpa zea)) [%] | pest or weed control at 0.5 µg/cm2 (CEW (Helicoverpa zea)) [%]
Cc1ccccc1NC(=O)NC(=O)Nc1ccc(-c2ncn(-c3ccc(OC(F)(F)F)cc3)n2)cc1 [Molecule A51] | 50 to 100 | 50 to 100 | 
CCc1ccccc1NC(=O)NC(=O)Nc1ccc(-c2ncn(-c3ccc(OC(F)(F)F)cc3)n2)cc1 [Molecule A52] | 50 to 100 | 50 to 100 | 
CCC(C)c1ccccc1N/C(=N\C(=O)Nc1ccc(-c2ncn(-c3ccc(OC(F)(F)F)cc3)n2)cc1)SCOC(=O)C(C)C (stereo not shown) [Molecule A54] | 50 to 100 | 50 to 100 | 
CCc1cccc(C)c1N/C(=N\C(=O)Nc1ccc(-c2ncn(-c3ccc(OC(F)(F)F)cc3)n2)cc1)SCOC(=O)C(C)C [Molecule A55] | 50 to 100 | 50 to 100 | 
COc1ccc(NC(NC(=O)Nc2ccc(-c3ncn(-c4ccc(OC(F)(F)F)cc4)n3)cc2)SCOC(=O)C(C)C)c(C)c1 (stereo not shown) [Molecule A56] | 50 to 100 | 50 to 100 | 
CCc1ccccc1N/C(=N\C(=O)Nc1ccc(-c2ncn(-c3ccc(OC(F)(F)F)cc3)n2)cc1)SCOC(=O)C(C)C [Molecule A57] | 50 to 100 | 50 to 100 | 
CC(C)C(=O)OCS/C(=N/C(=O)Nc1ccc(-c2ncn(-c3ccc(OC(F)(F)F)cc3)n2)cc1)Nc1c(Cl)cccc1Cl [Molecule A58] | 50 to 100 | 50 to 100 | 
Cc1cc(C)c(N/C(=N\C(=O)Nc2ccc(-c3ncn(-c4ccc(OC(F)(F)F)cc4)n3)cc2)SCOC(=O)C(C)C)c(C)c1 [Molecule A59] | 50 to 100 | 50 to 100 | 
Cc1ccccc1N/C(=N\C(=O)Nc1ccc(-c2ncn(-c3ccc(OC(F)(F)F)cc3)n2)cc1)SCOC(=O)C(C)C [Molecule A60] | 50 to 100 | 50 to 100 | 
CC(C)C(=O)OCS/C(=N/C(=O)Nc1ccc(-c2ncn(-c3ccc(OC(F)(F)F)cc3)n2)cc1)Nc1c(F)cccc1F [Molecule A61] | 50 to 100 | 50 to 100 | 
O=C(/N=C(\S)Nc1ccccc1C1CC1)Nc1ccc(-c2ncn(-c3ccc(OC(F)(F)F)cc3)n2)cc1 [Molecule A63] | 50 to 100 |  | 50 to 100
CCCc1ccccc1N/C(S)=N/C(=O)Nc1ccc(-c2ncn(-c3ccc(OC(F)(F)F)cc3)n2)cc1 [Molecule A64] | 50 to 100 |  | 50 to 100
CC(C)(C)c1ccccc1N/C(S)=N/C(=O)Nc1ccc(-c2ncn(-c3ccc(OC(F)(F)F)cc3)n2)cc1 [Molecule A67] | 50 to 100 |  | 50 to 100
Cc1ccc(N/C(S)=N/C(=O)Nc2ccc(-c3ncn(-c4ccc(OC(F)(F)F)cc4)n3)cc2)c(C)c1 [Molecule A68] | 50 to 100 |  | 50 to 100
Cc1cccc(Cl)c1N/C(S)=N/C(=O)Nc1ccc(-c2ncn(-c3ccc(OC(F)(F)F)cc3)n2)cc1 [Molecule A70] | 50 to 100 |  | 50 to 100
Cc1ccc(Cl)cc1N/C(S)=N/C(=O)Nc1ccc(-c2ncn(-c3ccc(OC(F)(F)F)cc3)n2)cc1 [Molecule A72] | 50 to 100 |  | 50 to 100
Cc1ccc(N/C(S)=N/C(=O)Nc2ccc(-c3ncn(-c4ccc(OC(F)(F)F)cc4)n3)cc2)c(Cl)c1 [Molecule A73] | 50 to 100 |  | 50 to 100
Cc1cccc(Cl)c1N1C(=O)CS/C1=N\C(=O)Nc1ccc(-c2ncn(-c3ccc(OC(F)(F)F)cc3)n2)cc1 [Molecule A74] | 50 to 100 |  | 50 to 100
Cc1cccc(N2C(=O)CS/C2=N\C(=O)Nc2ccc(-c3ncn(-c4ccc(OC(F)(F)F)cc4)n3)cc2)c1C [Molecule A75] | 50 to 100 |  | 50 to 100
Cc1ccc(Cl)cc1N1C(=O)CS/C1=N\C(=O)Nc1ccc(-c2ncn(-c3ccc(OC(F)(F)F)cc3)n2)cc1 [Molecule A76] | 50 to 100 |  | 50 to 100
Cc1c(F)cccc1N/C(S)=N/C(=O)Nc1ccc(-c2ncn(-c3ccc(OC(F)(F)F)cc3)n2)cc1 [Molecule A79] | 50 to 100 |  | 50 to 100

Structure (SMILES) | pest or weed control at 50 µg/cm2 (BAW (Spodoptera exigua)) [%] | pest or weed control at 50 µg/cm2 (CEW (Helicoverpa zea)) [%] | pest or weed control at 0.5 µg/cm2 (CEW (Helicoverpa zea)) [%]
CC(C)c1cccc(Cl)c1N/C(S)=N/C(=O)Nc1ccc(-c2ncn(-c3ccc(OC(F)(F)F)cc3)n2)cc1 [Molecule A81] | 50 to 100 | 50 to 100 | 
CC(C)c1ccc(F)cc1N/C(S)=N/C(=O)Nc1ccc(-c2ncn(-c3ccc(OC(F)(F)F)cc3)n2)cc1 [Molecule A82] | 50 to 100 |  | 50 to 100
Cc1ccc(N/C(S)=N/C(=O)Nc2ccc(-c3ncn(-c4ccc(OC(F)(F)F)cc4)n3)cc2)c(C(C)C)c1 [Molecule A84] | 50 to 100 |  | 50 to 100
CC(C)c1ccc(F)cc1N1C(=O)CS/C1=N\C(=O)Nc1ccc(-c2ncn(-c3ccc(OC(F)(F)F)cc3)n2)cc1 [Molecule A86] | 50 to 100 |  | 50 to 100
Cc1ccc(C(C)C)c(N2C(=O)CS/C2=N\C(=O)Nc2ccc(-c3ncn(-c4ccc(OC(F)(F)F)cc4)n3)cc2)c1 [Molecule A87] | 50 to 100 |  | 50 to 100
Cc1ccc(N2C(=O)CS/C2=N\C(=O)Nc2ccc(-c3ncn(-c4ccc(OC(F)(F)F)cc4)n3)cc2)c(C(C)C)c1 [Molecule A88] | 50 to 100 |  | 50 to 100
Cc1ccc(F)c(N/C(S)=N/C(=O)Nc2ccc(-c3ncn(-c4ccc(OC(F)(F)F)cc4)n3)cc2)c1 [Molecule A89] | 50 to 100 |  | 50 to 100
O=C(/N=C1\SCC(=O)N1c1ccc(Cl)cc1Cl)Nc1ccc(-c2ncn(-c3ccc(OC(F)(F)F)cc3)n2)cc1 [Molecule A92] | 50 to 100 |  | 50 to 100
Cc1c(F)cccc1N1C(=O)CS/C1=N\C(=O)Nc1ccc(-c2ncn(-c3ccc(OC(F)(F)F)cc3)n2)cc1 [Molecule A93] | 50 to 100 |  | 50 to 100
Cc1ccc(F)c(N2C(=O)CS/C2=N\C(=O)Nc2ccc(-c3ncn(-c4ccc(OC(F)(F)F)cc4)n3)cc2)c1 [Molecule A94] | 50 to 100 |  | 50 to 100
CCc1cccc(C)c1N/C(S)=N/C(=O)Nc1ccc(-c2ncn(-c3ccc(OC(F)(F)F)cc3)n2)cc1 [Molecule A97] | 50 to 100 |  | 50 to 100
COc1ccc(N/C(S)=N/C(=O)Nc2ccc(-c3ncn(-c4ccc(OC(F)(F)F)cc4)n3)cc2)c(C)c1 [Molecule A98] | 50 to 100 |  | 50 to 100
Cc1cc(C)cc(N/C(S)=N/C(=O)Nc2ccc(-c3ncn(-c4ccc(OC(F)(F)F)cc4)n3)cc2)c1 [Molecule A100] | 50 to 100 |  | 50 to 100
O=C(/N=C(\S)Nc1ccccc1Cc1ccccc1)Nc1ccc(-c2ncn(-c3ccc(OC(F)(F)F)cc3)n2)cc1 [Molecule A101] | 50 to 100 |  | 50 to 100
CCc1cccc(C)c1N1C(=O)CS/C1=N\C(=O)Nc1ccc(-c2ncn(-c3ccc(OC(F)(F)F)cc3)n2)cc1 [Molecule A103] | 50 to 100 |  | 50 to 100
O=C(/N=C1\SCC(=O)N1c1ccccc1Cc1ccccc1)Nc1ccc(-c2ncn(-c3ccc(OC(F)(F)F)cc3)n2)cc1 [Molecule A105] | 50 to 100 |  | 50 to 100
Cc1cccc(N/C(S)=N/C(=O)Nc2ccc(-c3ncn(-c4ccc(OC(F)(F)F)cc4)n3)cc2)c1C(C)C [Molecule A106] | 50 to 100 |  | 50 to 100
CC(C)c1c(F)cccc1N/C(S)=N/C(=O)Nc1ccc(-c2ncn(-c3ccc(OC(F)(F)F)cc3)n2)cc1 [Molecule A107] | 50 to 100 |  | 50 to 100
Cc1cccc(N2C(=O)CS/C2=N\C(=O)Nc2ccc(-c3ncn(-c4ccc(OC(F)(F)F)cc4)n3)cc2)c1C(C)C [Molecule A108] | 50 to 100 |  | 50 to 100
CC(C)c1c(F)cccc1N1C(=O)CS/C1=N\C(=O)Nc1ccc(-c2ncn(-c3ccc(OC(F)(F)F)cc3)n2)cc1 [Molecule A109] | 50 to 100 |  | 50 to 100
